Laboratory results taken from patent US11939340B2, “CDK inhibitors and their use as pharmaceuticals” (Prelude Therapeutics Incorporated, priority 2022, dated 2024).

Legend:
CDK2/Cyclin E2 = CDK2/Cyclin E2 (Homo sapiens, UniProt P24941); test: CDK2/CyclinE2 Enzymatic Activity Assay (TR-FRET); assay type: biochemical; conditions: CDK2/CyclinE2 1 nM, ATP 1 mM, read-out: CDK2_El IC50
Method: CDK2/CyclinE2 Enzymatic Activity Assay
The inhibitory activity of compounds was evaluated in vitro using TR-FRET assay with white 384-well low volume microplate (Greiner Bio-One). CDK2/Cyclin E2 catalyzed phosphorylation of peptide in the presence and absence of compounds was measured and used in IC50 determination. Recombinant protein complex CDK2/Cyclin E2, expressed from insect cell, was purchased from ProQinase. Testing compounds were dissolved in DMSO at 1 mM and tested in 9-dose IC50 mode. The reaction mixture was prepared by mixing CDK2/CyclinE2 (1 nM final), ULight-4E-BP1 (50 nM final, Perkinelmer, TRF0128-D), and ATP (1 mM final) in assay buffer (20 mM of HEPES pH 7.4, 1 mM of EGTA, 0.05% BSA, 0.005% Tween 20, and 1 mM TCEP). The compound of interest in DMSO was added to each well in 3-fold serial dilution by dispenser (TECAN D300E) to make a 9.9 μL of reaction mixture. After 20 minutes preincubation at room temperature, 0.1 μL MgCl2 (10 mM final) was added to initiate the reaction. Following a 45 minute incubation at 37° C., the reaction was stopped by addition of 2 μL of quenching buffer consisting of Lance detection buffer (Perkinelmer CR97-100C), LANCE Ultra Europium-anti-P-4E-BP1 (Perkinelmer, TRF0216-D), EDTA, and incubate at room temperature for additional 60 minutes in the dark. The reaction signal was measured by Envision multimode plate reader (PerkinElmer, 2102-0010). IC50 values were determined by fitting the data to the standard 4 parameters with Hill Slope using GraphPad Prism software.

CDK4/Cyclin D1 = target: T1, CDK4/Cyclin D1 (Homo sapiens, UniProt P11802); test: CDK4/CyclinD1 Enzymatic Activity Assay (TR-FRET); assay type: biochemical; conditions: CDK4/CyclinD1 1 nM, ATP 2 mM, read-out: CDK4_D1 IC50
T1 construct: purchased ProQinase; host or cells: insect cell
Method: CDK4/CyclinD1 Enzymatic Activity Assay
The inhibitory activity of compounds was evaluated in vitro using TR-FRET assay with white 384-well low volume microplate (Greiner Bio-One). CDK4/Cyclin D1 catalyzed phosphorylation of peptide in the presence and absence of compounds was measured and used in IC50 determination. Recombinant protein complex CDK4/Cyclin D1, expressed from insect cell, was purchased from ProQinase. Testing compounds were dissolved in DMSO at 1 mM and tested in 9-dose IC50 mode. The reaction mixture was prepared by mixing CDK4/CyclinD1 (1 nM final), ULight-4E-BP1 (100 nM final, Perkinelmer, TRF0128-D), and ATP (2 mM final) in assay buffer (20 mM of HEPES pH 7.4, 1 mM of EGTA, 0.05% BSA, 0.005% Tween 20, and 1 mM TCEP). The compound of interest in DMSO was added to each well in 3-fold serial dilution by the dispenser (TECAN D300E) to make a 9.9 μL of reaction mixture. After 20 minutes preincubation at room temperature, 0.1 μL MgCl2 (10 mM final) was added to initiate the reaction. Following a 45 minute incubation at 37° C., the reaction was stopped by addition of 2 μL of quenching buffer consisting of Lance detection buffer (Perkinelmer CR97-100C), LANCE Ultra Europium-anti-P-4E-BP1 (Perkinelmer, TRF0216-D), EDTA, and incubated at room temperature for additional 60 minutes in dark. The reaction signal was measured by Envision multimode plate reader (PerkinElmer, 2102-0010). IC50 values were determined by fitting the data to the standard 4 parameters with Hill Slope using GraphPad Prism software.

pRB in OVCAR3 cells = test: pRB ICW Assay in OVCAR3 Cells; assay type: cell-based; conditions: Homo sapiens, OVCAR-3, incubated with compound for 2 hours, read-out: OVCAR3 p-RB ICW IC50
Method: pRB ICW Assay in OVCAR3 Cells
OVCAR3 cells were maintained in RPMI (Corning, Catalog #: 10-040-CV) supplemented with 10% v/v FBS (Gibco, Catalog #: 26140-079), 1% v/v Penicillin Streptomycin (Gibco, Catalog #15140-122.) OVCAR3 cells grown at log phase were trypsinized, counted, and resuspended in fresh medium to reach a final density of 6.7e4 cells/mL and 75 μL of culture were dispensed into a 384-well plate (Falcon, cat #353962) using a Multidrop Combi dispenser (Thermo Scientific). The next day, compounds were dispensed as a 9-point, ½ log serial dilution using a Tecan digital dispenser (D300e), and cells were incubated with compound for 2 hours in a humidified incubator at 37° C. A reference compound at a final concentration of 10 μM was used as a control for maximum inhibition. Each compound was tested in duplicates for each experiment. At the end of the incubation, 25 μL of 16% paraformaldehyde (Electron Microscopy, cat #15710) was slowly added to each well and the plate was incubated at room temperature (RT) for 30 minutes to fix cells. Cells were then permeabilized by incubating with 50 μL/well of wash buffer (lx PBS with 0.1% Triton X-100) 5×5 minutes, followed by 1 hour blocking with 30 μL/well of Odyssey blocking buffer (Li—COR, cat #927-40000), at RT. Anti-phosphor RB antibody (Cell signaling 8516S) was diluted 1:1000 in Odyssey blocking buffer and 20 μL was added to all wells and incubated overnight in 4° C. with gently rocking. The next day, cells were washed 5×5 min with 50 μL/well of wash buffer, followed with 1 hour incubation with secondary antibody and DRAQ5 diluted in Odyssey blocking buffer (1:500 dilution for secondary antibody and 1:2000 dilution for DRAQ5), 5×5 min washes, and one last wash with water. Plates were dried in 37° C. oven for 5 minutes and scanned using Li—COR Odyssey CLx imaging system to acquire intensities at 700 and 800 nm channels.

T1 sequence (P11802 whole entry): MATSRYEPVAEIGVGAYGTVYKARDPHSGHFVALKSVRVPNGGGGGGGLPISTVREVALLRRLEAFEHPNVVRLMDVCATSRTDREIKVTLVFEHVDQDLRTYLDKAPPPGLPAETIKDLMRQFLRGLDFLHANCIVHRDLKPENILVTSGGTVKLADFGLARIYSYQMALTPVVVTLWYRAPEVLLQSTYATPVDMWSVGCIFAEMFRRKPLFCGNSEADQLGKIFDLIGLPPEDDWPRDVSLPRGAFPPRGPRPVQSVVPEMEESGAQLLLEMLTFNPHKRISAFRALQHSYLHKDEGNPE
T1 sequence (P24385 whole entry partner): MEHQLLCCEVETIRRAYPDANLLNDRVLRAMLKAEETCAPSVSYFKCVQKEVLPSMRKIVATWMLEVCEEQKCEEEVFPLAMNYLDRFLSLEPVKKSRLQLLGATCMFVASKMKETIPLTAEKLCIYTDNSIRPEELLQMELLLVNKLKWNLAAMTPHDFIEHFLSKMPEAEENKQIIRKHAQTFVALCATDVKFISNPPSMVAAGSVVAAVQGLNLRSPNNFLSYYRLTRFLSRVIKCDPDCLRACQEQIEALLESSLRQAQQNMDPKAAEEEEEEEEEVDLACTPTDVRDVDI

Compound | IC50 (CDK2/Cyclin E2) [nM] | IC50 (CDK4/Cyclin D1) [nM] | IC50 (pRB in OVCAR3 cells) [nM]
CC(C)C12CCCCN1C(=O)c1cc(-c3nc(NC4CCN(S(C)(=O)=O)CC4)ncc3C(F)(F)F)sc12 (stereo not shown) [Example 1, 9a-isopropyl-2-(2-((1-(methylsulfonyl)piperidin-4-yl)amino)-5-(trifluoromethyl)pyrimidin-4-yl)-7,8,9,9a-tetrahydrothieno[2,3-a]indolizin-4(6H)-one] | ≤ 100 | ≤ 100 | 100 to 500
CS(=O)(=O)N1CCC(Nc2ncc(C(F)(F)F)c(-c3cc4c(s3)C3(CCCO)CCCCN3C4=O)n2)CC1 (stereo not shown) [Example 4, 9a-(3-Hydroxypropyl)-2-(2-((1-(methylsulfonyl)piperidin-4-yl)amino)-5-(trifluoromethyl)pyrimidin-4-yl)-7,8,9,9a-tetrahydrothieno[2,3-a]indolizin-4(6H)-one] | ≤ 100 | ≤ 100 | 
CS(=O)(=O)N1CCC(Nc2ncc(C(F)(F)F)c(-c3cc4c(s3)C3(CCO)CCCCN3C4=O)n2)CC1 (stereo not shown) [Example 5, 9a-(2-Hydroxyethyl)-2-(2-((1-(methylsulfonyl)piperidin-4-yl)amino)-5-(trifluoromethyl)pyrimidin-4-yl)-7,8,9,9a-tetrahydrothieno[2,3-a]indolizin-4(6H)-one] | ≤ 100 | ≤ 100 | 
CC12CCCCN1C(=O)c1cc(-c3nc(NC4CCN(S(C)(=O)=O)CC4)ncc3F)sc12 (stereo not shown) [Example 6, 2-(5-Fluoro-2-((1-(methylsulfonyl)piperidin-4-yl)amino)pyrimidin-4-yl)-9a-methyl-7,8,9,9a-tetrahydrothieno[2,3-a]indolizin-4(6H)-one] | ≤ 100 | ≤ 100 | ≤ 100
CC(C)C12CCCCN1C(=O)c1cc(-c3nc(NC4CCN(S(C)(=O)=O)CC4)ncc3F)sc12 (stereo not shown) [Example 9, 2-(5-Fluoro-2-((1-(methylsulfonyl)piperidin-4-yl)amino)pyrimidin-4-yl)-9a-isopropyl-7,8,9,9a-tetrahydrothieno[2,3-a]indolizin-4(6H)-one] | ≤ 100 |  | 
CC(C)C12CCOCCN1C(=O)c1cc(-c3nc(NC4CCN(S(C)(=O)=O)CC4)ncc3C(F)(F)F)sc12 (stereo not shown) [Example 10, 10a-Isopropyl-2-(2-((1-(methylsulfonyl)piperidin-4-yl)amino)-5-(trifluoro-methyl)pyrimidin-4-yl)-6,7,10,10a-tetrahydrothieno[2′,3′:3,4]pyrrolo[1,2-d][1,4]oxazepin-4(9H)-one] | ≤ 100 | ≤ 100 | 100 to 500
CC(C)C12CCCN1C(=O)c1cc(-c3nc(NC4CCN(S(C)(=O)=O)CC4)ncc3C(F)(F)F)sc12 (stereo not shown) [Example 11, 8a-Isopropyl-2-(2-((1-(methylsulfonyl)piperidin-4-yl)amino)-5-(trifluoro-methyl)pyrimidin-4-yl)-6,7,8,8a-tetrahydro-4H-thieno[2,3-a]pyrrolizin-4-one] | ≤ 100 | ≤ 100 | 100 to 500
CCC12CCCN1C(=O)c1cc(-c3nc(NC4CCN(S(C)(=O)=O)CC4)ncc3C(F)(F)F)sc12 (stereo not shown) [Example 14, 8a-Ethyl-2-[2-[(1-methylsulfonylpiperidin-4-yl)amino]-5-(trifluoromethyl)pyrimidin-4-yl]-7,8-dihydro-6H-thieno[2,3-a]pyrrolizin-4-one] | ≤ 100 | ≤ 100 | ≤ 100
CCC12CCCN1C(=O)c1cc(-c3nc(NC4CCN(S(C)(=O)=O)CC4)ncc3F)sc12 (stereo not shown) [Example 15, 8a-Ethyl-2-[5-fluoro-2-[(1-methylsulfonylpiperidin-4-yl)amino]pyrimidin-4-yl]-7,8-dihydro-6H-thieno[2,3-a]pyrrolizin-4-one] | ≤ 100 | ≤ 100 | ≤ 100
CCC12CCCN1C(=O)c1cc(-c3nc(NC4CCN(S(C)(=O)=O)CC4)ncc3C)sc12 (stereo not shown) [Example 16, 8a-Ethyl-2-[5-methyl-2-[(1-methylsulfonylpiperidin-4-yl)amino]pyrimidin-4-yl]-7,8-dihydro-6H-thieno[2,3-a]pyrrolizin-4-one] | ≤ 100 | ≤ 100 | ≤ 100
CS(=O)(=O)N1CCC(Nc2ncc(C(F)(F)F)c(-c3cc4c(s3)C3(CO)CCCN3C4=O)n2)CC1 (stereo not shown) [Example 17, 8a-(Hydroxymethyl)-2-(2-((1-(methylsulfonyl)piperidin-4-yl)amino)-5-(trifluoromethyl)pyrimidin-4-yl)-6,7,8,8a-tetrahydro-4H-thieno[2,3-a]pyrrolizin-4-one] | ≤ 100 | ≤ 100 | 100 to 500
CS(=O)(=O)N1CCC(Nc2ncc(C(F)(F)F)c(-c3cc4c(s3)C3(CF)CCCN3C4=O)n2)CC1 (stereo not shown) [Example 18, 8a-(Fluoromethyl)-2-(2-((1-(methylsulfonyl)piperidin-4-yl)amino)-5-(trifluoromethyl)pyrimidin-4-yl)-6,7,8,8a-tetrahydro-4H-thieno[2,3-a]pyrrolizin-4-one] | ≤ 100 | ≤ 100 | 100 to 500
CS(=O)(=O)N1CCC(Nc2ncc(C(F)(F)F)c(-c3cc4c(s3)C3(CCF)CCCN3C4=O)n2)CC1 (stereo not shown) [Example 19, 8a-(2-Fluoroethyl)-2-(2-((1-(methylsulfonyl)piperidin-4-yl)amino)-5-(trifluoromethyl)pyrimidin-4-yl)-6,7,8,8a-tetrahydro-4H-thieno[2,3-a]pyrrolizin-4-one] | ≤ 100 | ≤ 100 | ≤ 100
CC12CCCN1C(=O)c1cc(-c3nc(NC4CCN(S(C)(=O)=O)CC4)ncc3C(F)(F)F)sc12 (stereo not shown) [Example 20, 8a-Methyl-2-(2-((1-(methylsulfonyl)piperidin-4-yl)amino)-5-(trifluoromethyl)pyrimidin-4-yl)-6,7,8,8a-tetrahydro-4H-thieno[2,3-a]pyrrolizin-4-one] | ≤ 100 | ≤ 100 | ≤ 100
CCC12CCCN1C(=O)c1cc(-c3ccnc(NC4CCN(S(C)(=O)=O)CC4)n3)sc12 (stereo not shown) [Example 28, 8a-Ethyl-2-(2-((1-(methylsulfonyl)piperidin-4-yl)amino)pyrimidin-4-yl)-6,7,8,8a-tetrahydro-4H-thieno[2,3-a]pyrrolizin-4-one] | 100 to 500 | 100 to 500 | 
